Measurements as given in patent US8030354B2, “Substituted biphenyl GPR40 modulators” (Amgen Inc., priority 2007, dated 2011).

Molecular target: GPR40 (Homo sapiens, UniProt O14842)
Assay: Cell-based aequorin assay (CHO cells stably expressing GPR40 and aequorin)
Parameters: expressed in transfected cells; host or cells: CHO cells stably transfected with GPR40 and aequorin
Conditions: activation of human GPR40, CHO cells, 0.01% HSA
In short: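 CHO cells stably co-expressing GPR40 and aequorin, loaded with coelenterazine (1 ug/mL, 2 h, room temperature) in H/HBSS with 20 mM Hepes and 0.01% fatty acid-free HSA. Serially diluted compounds added; luminescence recorded over 20 s. EC50 from dose-response of maximum relative light units.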

Sequence of GPR40 (O14842 whole entry): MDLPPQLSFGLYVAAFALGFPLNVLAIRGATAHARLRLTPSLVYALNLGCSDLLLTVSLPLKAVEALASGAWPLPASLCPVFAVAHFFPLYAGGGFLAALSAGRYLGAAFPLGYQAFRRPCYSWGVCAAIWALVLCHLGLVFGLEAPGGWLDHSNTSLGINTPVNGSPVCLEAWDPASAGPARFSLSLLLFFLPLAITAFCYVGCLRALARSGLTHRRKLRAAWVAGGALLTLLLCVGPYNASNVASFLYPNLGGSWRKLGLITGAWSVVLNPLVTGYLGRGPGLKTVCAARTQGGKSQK

CCC/C=C/c1cc(COc2cccc(C(C)CC(=O)O)c2)ccc1-c1cc(OC)ccc1F (single isomer, unassigned) [Example 64.8, (3R)-3-(3-(((2′-Fluoro-5′-(methyloxy)-2-((1E)-1-pentenyl)-1,1′-biphenyl-4-yl)methyl)oxy)phenyl)butanoic acid or (3S)-3-(3-(((2′-fluoro-5′-(methyloxy)-2-((1E)-1-pentenyl)-1,1′-biphenyl-4-yl)methyl)oxy)phenyl)butanoic acid]
EC50: 100 to 1000 nM

C=C(C)[C@@H](CC(=O)O)c1cccc(OCc2ccc(-c3cc(OC)ccc3F)c(C(C)(C)C)c2)c1 (single isomer, unassigned) [Example 48, (3R)-3-(3-(((2-(1,1-Dimethylethyl)-2′-fluoro-5′-(methyloxy)-1,1′-biphenyl-4-yl)methyl)oxy)phenyl)-4-methyl-4-pentenoic acid or (3S)-3-(3-(((2-(1,1-dimethylethyl)-2′-fluoro-5′-(methyloxy)-1,1′-biphenyl-4-yl)methyl)oxy)phenyl)-4-methyl-4-pentenoic acid]
EC50: 1000 to 10000 nM

COc1cccc(-c2ccc(COc3cccc(CCC(=O)O)c3)cc2C(C)(C)C)c1 [Example 40, 3-(3-(((2-(1,1-Dimethylethyl)-3′-(methyloxy)-1,1′-biphenyl-4-yl)methyl)oxy)phenyl)propanoic acid]
EC50: 100 to 1000 nM

COc1ccc(F)c(-c2ccc(COc3cccc(CC(C)C(=O)O)c3)cc2C2CCCC2(C)C)c1 (single isomer, unassigned) [Example 62.2, (2R)-3-(3-(((2-(2,2-Dimethylcyclopentyl)-2′-fluoro-5′-(methyloxy)-1,1′-biphenyl-4-yl)methyl)oxy)phenyl)-2-methylpropanoic acid or (2S)-3-(3-(((2-(2,2-dimethylcyclopentyl)-2′-fluoro-5′-(methyloxy)-1,1′-biphenyl-4-yl)methyl)oxy)phenyl)-2-methylpropanoic acid]
EC50: 100 to 1000 nM

COc1ccc(F)c(-c2ccc(COc3cccc([C@H](CC(=O)O)C4CC4)c3)cc2C(C)(C)C)c1 (single isomer, unassigned) [Example 10, (3R)-3-Cyclopropyl-3-(3-(((2-(1,1-dimethylethyl)-2′-fluoro-5′-(methyloxy)-1,1′-biphenyl-4-yl)methyl)oxy)phenyl)propanoic acid or (3S)-3-cyclopropyl-3-(3-(((2-(1,1-dimethylethyl)-2′-fluoro-5′-(methyloxy)-1,1′-biphenyl-4-yl)methyl)oxy)phenyl)propanoic acid]
EC50: 1000 to 10000 nM

COc1ccc(F)c(-c2ccc(COc3cccc(CC(C)C(=O)O)c3)cc2C2CCCC2(C)C)c1 (single isomer, unassigned) [Example 63.2, (2S)-3-(3-(((2-(2,2-Dimethylcyclopentyl)-2′-fluoro-5′-(methyloxy)-1,1′-biphenyl-4-yl)methyl)oxy)phenyl)-2-methylpropanoic acid or (2R)-3-(3-(((2-(2,2-dimethylcyclopentyl)-2′-fluoro-5′-(methyloxy)-1,1′-biphenyl-4-yl)methyl)oxy)phenyl)-2-methylpropanoic acid]
EC50: 100 to 1000 nM

CCC(CC(=O)O)c1ccc(F)c(OCc2ccc(-c3cc(OC)ccc3F)c(C(C)(C)C)c2)c1 (single isomer, unassigned) [Example 86.2, (3R)-3-(3-(((2-(1,1-Dimethylethyl)-2′-fluoro-5′-(methyloxy)-1,1′-biphenyl-4-yl)methyl)oxy)-4-fluorophenyl)pentanoic acid or (3S)-3-(3-(((2-(1,1-dimethylethyl)-2′-fluoro-5′-(methyloxy)-1,1′-biphenyl-4-yl)methyl)oxy)-4-fluorophenyl)pentanoic acid]
EC50: 1000 to 10000 nM

COc1ccc(F)c(-c2ccc(COc3cccc(C(CC(=O)O)C4CC4)c3)cc2CN2CCCC[C@@H]2C)c1 (single isomer, unassigned) [Example 66.75, (3S)-3-Cyclopropyl-3-(3-(((2′-fluoro-5′-(methyloxy)-2-(((2S)-2-methyl-1-piperidinyl)methyl)-1,1′-biphenyl-4-yl)methyl)oxy)phenyl)propanoic acid or (3R)-3-cyclopropyl-3-(3-(((2′-fluoro-5′-(methyloxy)-2-(((2S)-2-methyl-1-piperidinyl)methyl)-1,1′-biphenyl-4-yl)methyl)oxy)phenyl)propanoic acid]
EC50: 1000 to 10000 nM

COc1ccc(F)c(-c2ccc(COc3cccc([C@@H](CC(=O)O)C4CC4)c3)cc2CN2CCCC2)c1 (single isomer, unassigned) [Example 66.65, (3S)-3-Cyclopropyl-3-(3-(((2′-fluoro-5′-(methyloxy)-2-(1-pyrrolidinylmethyl)-1,1′-biphenyl-4-yl)methyl)oxy)phenyl)propanoic acid or (3R)-3-cyclopropyl-3-(3-(((2′-fluoro-5′-(methyloxy)-2-(1-pyrrolidinylmethyl)-1,1′-biphenyl-4-yl)methyl)oxy)phenyl)propanoic acid]
EC50: 1000 to 10000 nM

CCC(CC(=O)O)c1cc(F)cc(OCc2ccc(-c3cc(OC)ccc3F)c(C3CCCC3(C)C)c2)c1F (single isomer, unassigned) [Example 101.2]
EC50: 100 to 1000 nM

CCC(CC(=O)O)c1cccc(OCc2ccc(-c3cc(OC)ccc3F)c(C3CCCC3(C)C)c2)c1 (single isomer, unassigned) [Example 98.2]
EC50: 1000 to 10000 nM

COc1ccc(F)c(-c2ccc(COc3cccc([C@@H](CC(=O)O)CC4CC4)c3)cc2[C@@H]2OCCC2(C)C)c1 (single isomer, unassigned) [Example 69.43]
EC50: 1000 to 10000 nM

COc1ccc(F)c(-c2ccc(C(C)Oc3cccc(C(C)CC(=O)O)c3)cc2C(C)(C)C)c1 (single isomer, unassigned) [Example 64.25]
EC50: 1000 to 10000 nM

CCCC(CC(=O)O)c1cccc(OCc2ccc(-c3cc(OC)ccc3F)c(C3CCCC3(C)C)c2)c1 (single isomer, unassigned) [Example 80.3]
EC50: 100 to 1000 nM

CCCC(CC(=O)O)c1cccc(OCc2ccc(-c3cc(OC)ccc3F)c(C(C)(C)C)c2F)c1 (single isomer, unassigned) [Example 67.3, (3R)-3-(3-(((2-(1,1-Dimethylethyl)-2′,3-difluoro-5′-(methyloxy)-1,1′-biphenyl-4-yl)methyl)oxy)phenyl)hexanoic acid or (3S)-3-(3-(((2-(1,1-dimethylethyl)-2′,3-difluoro-5′-(methyloxy)-1,1′-biphenyl-4-yl)methyl)oxy)phenyl)hexanoic acid]
EC50: 100 to 1000 nM

CC1(C)CCC[C@H]1c1cc(COc2cccc([C@@H](CC(=O)O)C3CC3)c2)ccc1-c1cccc(OC(F)F)c1 (single isomer, unassigned) [Example 66.47]
EC50: 100 to 1000 nM

C=CC(C)(C)[C@H](OC)c1cc(COc2cccc([C@@H](CC(=O)O)CC3CC3)c2)ccc1-c1cc(OC)ccc1F (single isomer, unassigned) [Example 69.39]
EC50: 1000 to 10000 nM

CCOc1cccc(-c2ccc(COc3cccc(CCC(=O)O)c3)cc2C(C)(C)C)c1 [Example 41, 3-(3-(((2-(1,1-Dimethylethyl)-3′-(ethyloxy)-1,1′-biphenyl-4-yl)methyl)oxy)phenyl)propanoic acid]
EC50: 1000 to 10000 nM

COc1cccc(-c2ccc(COc3cccc(C(CC(=O)O)C4CC4)c3)cc2C2CCCC2(C)C)c1 (single isomer, unassigned) [Example 66.7]
EC50: 100 to 1000 nM

CCC(CC(=O)O)c1cc(OCc2ccc(-c3cc(OC)ccc3F)c(C(C)(C)C)c2)ccc1F (single isomer, unassigned) [Example 76.2, (3R)-3-(5-(((2-(1,1-Dimethylethyl)-2′-fluoro-5′-(methyloxy)-1,1′-biphenyl-4-yl)methyl)oxy)-2-fluorophenyl)pentanoic acid or (3S)-3-(5-(((2-(1,1-dimethylethyl)-2′-fluoro-5′-(methyloxy)-1,1′-biphenyl-4-yl)methyl)oxy)-2-fluorophenyl)pentanoic acid]
EC50: 1000 to 10000 nM

CCOCc1cc(COc2cccc(C(CC)CC(=O)O)c2)ccc1-c1cc(OC)ccc1F (single isomer, unassigned) [Example 78.12, (3R)-3-(3-(((2-((Ethyloxy)methyl)-2′-fluoro-5′-(methyloxy)-1,1′-biphenyl-4-yl)methyl)oxy)phenyl)pentanoic acid or (3S)-3-(3-(((2-((ethyloxy)methyl)-2′-fluoro-5′-(methyloxy)-1,1′-biphenyl-4-yl)methyl)oxy)phenyl)pentanoic acid]
EC50: 1000 to 10000 nM

COc1ccc(F)c(-c2ccc(COc3cccc(C[C@H](C)C(=O)O)c3)cc2C2=CCCC2(C)C)c1 (single isomer, unassigned) [Example 63.1, (2S)-3-(3-(((2-(5,5-Dimethyl-1-cyclopenten-1-yl)-2′-fluoro-5′-(methyloxy)-1,1′-biphenyl-4-yl)methyl)oxy)phenyl)-2-methylpropanoic acid or (2R)-3-(3-(((2-(5,5-dimethyl-1-cyclopenten-1-yl)-2′-fluoro-5′-(methyloxy)-1,1′-biphenyl-4-yl)methyl)oxy)phenyl)-2-methylpropanoic acid]
EC50: 100 to 1000 nM

CSc1cccc(-c2ccc(COc3cccc(CCC(=O)O)c3)cc2C(C)(C)C)c1 [Example 61.4, 3-(3-(((2-(1,1-Dimethylethyl)-3′-(methylsulfanyl)-1,1′-biphenyl-4-yl)methyl)oxy)phenyl)propanoic acid]
EC50: 1000 to 10000 nM

CC1(C)CCCC=C1c1cc(COc2cccc(C(CC(=O)O)C3CC3)c2)ccc1-c1cc(=O)[nH]cc1F (single isomer, unassigned) [Example 66.35, (3S)-3-Cyclopropyl-3-(3-(((3-(6,6-dimethyl-1-cyclohexen-1-yl)-4-(5-fluoro-2-oxo-1,2-dihydro-4-pyridinyl)phenyl)methyl)oxy)phenyl)propanoic acid or (3R)-3-cyclopropyl-3-(3-(((3-(6,6-dimethyl-1-cyclohexen-1-yl)-4-(5-fluoro-2-oxo-1,2-dihydro-4-pyridinyl)phenyl)methyl)oxy)phenyl)propanoic acid]
EC50: 1000 to 10000 nM
